{"source": "patent US10738042B2", "about": "“Phosphonamidates that are Bcl family antagonists for use in clinical management of conditions caused or mediated by senescent cells and for treating cancer” (Unity Biotechnology, priority 2018, dated 2020)", "key": {"[1]": {"system": "3MR or INK-ATTAC mice exposed to cigarette smoke", "experiment": "Cigarette smoke COPD model, oxygen saturation by pulse oximeter", "type": "in vivo, mouse", "settings": "after two months of cigarette smoke exposure; FIG. 8", "text": "The mice used in this study include the 3MR strain, described in US 2017/0027139 A1 and in Demaria et al., Dev Cell. 2014 Dec. 22; 31(6): 722-733. The 3MR mouse has a transgene encoding thymidine kinase that converts the prodrug ganciclovir (GCV) to a compound that is lethal to cells. The enzyme in the transgene is placed under control of the p16 promoter, which causes it to be specifically expressed in senescent cells. Treatment of the mice with GCV eliminates senescent cells.\nOther mice used in this study include the INK-ATTAC strain, described in US 2015/0296755 A1 and in Baker et al., Nature 2011 Nov. 2; 479(7372):232-236. The INK-ATTAC mouse has a transgene encoding switchable caspase 8 under control of the p16 promoter. The caspase 8 can be activated by treating the mice with the switch compound AP20187, whereupon the caspase 8 directly induces apoptosis in senescent cells, eliminating them from the mouse.\nTo conduct the experiment, six-week-old 3MR (n=35) or INK-ATTAC (n=35) mice were chronically exposed to cigarette smoke generated from a Teague TE-10 system, an automatically-controlled cigarette smoking machine that produces a combination of side-stream and mainstream cigarette smoke in a chamber, which is transported to a collecting and mixing chamber where varying amounts of air is mixed with the smoke mixture. The COPD protocol was adapted from the COPD core facility at Johns Hopkins University (Rangasamy et al., 2004, J. Clin. Invest. 114:1248-1259; Yao et al., 2012, J. Clin. Invest. 122:2032-2045).\nMice received a total of 6 hours of cigarette smoke exposure per day, 5 days a week for 6 months. Each lighted cigarette (3R4F research cigarettes containing 10.9 mg of total particulate matter (TPM), 9.4 mg of tar, and 0.726 mg of nicotine, and 11.9 mg carbon monoxide per cigarette [University of Kentucky, Lexington, Ky.]) was puffed for 2 seconds and once every minute for a total of 8 puffs, with the flow rate of 1.05 L/min, to provide a standard puff of 35 cm3. The smoke machine was adjusted to produce a mixture of side stream smoke (89%) and mainstream smoke (11%) by smoldering 2 cigarettes at one time. The smoke chamber atmosphere was monitored for total suspended particulates (80-120 mg/m3) and carbon monoxide (350 ppm). […]\nAfter two months of cigarette smoke (CS) exposure, lung function was assessed by monitoring oxygen saturation using the MouseSTAT PhysioSuite™ pulse oximeter (Kent Scientific). […] Mice were monitored for 30 seconds and the average peripheral capillary oxygen saturation (SpO2) measurement over this duration was calculated."}, "[2]": {"system": "cancer cells in human patients", "settings": "cited from earlier work"}, "[3]": {"system": "SASP factors and senescent cell markers in the aortic arch", "experiment": "Atherosclerosis model, RT-PCR of SASP factors and senescent cell markers in aortic arches", "type": "in vivo, mouse", "settings": "HFD, 25 mg/kg intraperitoneally", "experimental": "Two groups of LDLR−/− mice (10 weeks) are fed a high fat diet (HFD) (Harlan Teklad TD.88137) having 42% calories from fat, beginning at Week 0 and throughout the study. Two groups of LDLR−/− mice (10 weeks) are fed normal chow (−HFD). From weeks 0-2, one group of HFD mice and −HFD mice are treated with Nutlin-3A (25 mg/kg, intraperitoneally). One treatment cycle is 14 days treatment, 14 days off. Vehicle is administered to one group of HFD mice and one group of −HFD mice. At week 4 (timepoint 1), one group of mice are sacrificed and to assess presence of senescent cells in the plaques. For the some of the remaining mice, Nutlin-3A and vehicle administration is repeated from weeks 4-6. […]\nAt the end of timepoint 1, LDLR−/− mice fed a HFD and treated with Nutlin-3A or vehicle were sacrificed (n=3, all groups), and the aortic arches were dissected for RT-PCR analysis of SASP factors and senescent cell markers. Values were normalized to GAPDH and expressed as fold-change versus age-matched, vehicle-treated LDLR−/− mice on a normal diet.\nAt the end of timepoint 2, LDLR−/− mice fed a HFD and treated with Nutlin-3A or vehicle (n=3 for all groups) were sacrificed, and aortic arches were dissected for RT-PCR analysis of SASP factors and senescent cell markers. Values were normalized to GAPDH and expressed as fold-change versus age-matched, vehicle-treated LDLR−/− mice on a normal diet."}, "[4]": {"system": "C57BL/6J mice with ACL surgery-induced osteoarthritis", "experiment": "Osteoarthritis model, histopathology of joint tissue", "type": "in vivo, mouse", "settings": "FIGS. 6B-6D", "experimental": "(§1) The model was implemented as follows. C57BL/6J mice underwent surgery to cut the anterior cruciate ligament of one rear limb to induce osteoarthritis in the joint of that limb. During week 3 and week 4 post-surgery, the mice were treated with 5.8 μg of Nutlin-3A (n=7) per operated knee by intra-articular injection, q.o.d. for 2 weeks. At the end of 4 weeks post-surgery, joints of the mice were monitored for presence of senescent cells, assessed for function, monitored for markers of inflammation, and underwent histological assessment."}, "[5]": {"system": "LDLR-/- mice fed a high fat diet", "experiment": "Atherosclerosis model, Sudan IV staining of aortas for plaque", "type": "in vivo, mouse", "settings": "HFD; 25 mg/kg intraperitoneally; timepoint 3 (week 12); FIG. 9", "experimental": "(§2) Two groups of LDLR−/− mice (10 weeks) are fed a high fat diet (HFD) (Harlan Teklad TD.88137) having 42% calories from fat, beginning at Week 0 and throughout the study. Two groups of LDLR−/− mice (10 weeks) are fed normal chow (−HFD). From weeks 0-2, one group of HFD mice and −HFD mice are treated with Nutlin-3A (25 mg/kg, intraperitoneally). One treatment cycle is 14 days treatment, 14 days off. Vehicle is administered to one group of HFD mice and one group of −HFD mice. At week 4 (timepoint 1), one group of mice are sacrificed and to assess presence of senescent cells in the plaques. For the some of the remaining mice, Nutlin-3A and vehicle administration is repeated from weeks 4-6. At week 8 (timepoint 2), the mice are sacrificed and to assess presence of senescent cells in the plaques. The remaining mice are treated with Nutlin-3A or vehicle from weeks 8-10. At week 12 (timepoint 3), the mice are sacrificed and to assess the level of plaque and the number of senescent cells in the plaques.\n(§3) At the end of timepoint 3, LDLR−/− mice fed a HFD and treated with Nutlin-3A or vehicle (n=3 for all groups) were sacrificed, and aortas were dissected and stained with Sudan IV to detect the presence of lipid. Body composition of the mice was analyzed by MRI, and circulating blood cells were counted by Hemavet™."}, "[6]": {"system": "C57BL/6J mice with ACL surgery-induced osteoarthritis", "experiment": "Osteoarthritis model, weight bearing test", "type": "in vivo, mouse", "settings": "4 weeks post-surgery; FIG. 6A", "experimental": "as §1\nFunction of the limbs was assessed 4 weeks post-surgery by a weight bearing test to determine which leg the mice favored. The mice were allowed to acclimate to the chamber on at least three occasions prior to taking measurements. Mice were maneuvered inside the chamber to stand with one hind paw on each scale. The weight that was placed on each hind limb was measured over a three second period. At least three separate measurements were made for each animal at each time point. The results were expressed as the percentage of the weight placed on the operated limb versus the contralateral unoperated limb."}, "[7]": {"system": "LDLR-/- mice fed a high fat diet", "experiment": "Atherosclerosis model, body composition (MRI) and circulating blood cell counts (Hemavet)", "type": "in vivo, mouse", "settings": "timepoint 3 (week 12)", "experimental": "as §2, §3"}, "[8]": {"system": "p16, IL-6, MMP13 expression in the operated joint", "experiment": "Osteoarthritis model (ACL surgery), qRT-PCR of senescence markers and SASP factors in operated joints", "type": "in vivo, mouse", "settings": "5.8 μg per operated knee intra-articular, 4 weeks post-surgery", "experimental": "as §1\nTwo control groups of mice were included in the studies performed: one group comprising C57BL/6J or 3MR mice that had undergone a sham surgery (n=3) (i.e., surgical procedures followed except for cutting the ACL) and intra-articular injections of vehicle parallel to the GCV (ganciclovir) treated group; and one group comprising C57BL/6J or 3MR mice that had undergone an ACL surgery and received intra-articular injections of vehicle (n=5) parallel to the GCV-treated group. RNA from the operated joints of mice from the Nutlin-3A treated mice was analyzed for expression of SASP factors (mmp3, IL-6) and senescence markers (p16). qRT-PCR was performed to detect mRNA levels."}}}
{"smiles": "CC[C@H](C(=O)N1CCCC[C@H]1C(=O)O[C@H](CCc1ccc(OC)c(OC)c1)c1cccc(OCC(=O)NCC(CNC(=O)COc2cccc([C@@H](CCc3ccc(OC)c(OC)c3)OC(=O)[C@@H]3CCCCN3C(=O)[C@@H](CC)c3cc(OC)c(OC)c(OC)c3)c2)CN(C)C)c1)c1cc(OC)c(OC)c(OC)c1", "note": "[AP2018]", "values": [{"measurement": "SpO2 levels compared with untreated controls", "setting": "[1]", "value": "statistically significant increases"}]}
{"smiles": "Nc1nc(O)c2ncn(COC(CO)CO)c2n1", "note": "[ganciclovir]", "values": [{"measurement": "SpO2 levels compared with untreated controls", "setting": "[1]", "value": "statistically significant increases"}]}
{"smiles": "CC1(C)CCC(c2ccc(Cl)cc2)=C(CN2CCN(c3ccc(C(=O)NS(=O)(=O)c4ccc(N[C@H](CCN5CCOCC5)CSc5ccccc5)c(S(=O)(=O)C(F)(F)F)c4)cc3)CC2)C1", "note": "[ABT-263]", "values": [{"measurement": "SpO2 levels compared with untreated controls", "setting": "[1]", "value": "statistically significant increases"}]}
{"smiles": "CN(C)CC[C@H](CSc1ccccc1)Nc1ccc(S(=O)(=O)NC(=O)c2ccc(N3CCN(Cc4ccccc4-c4ccc(Cl)cc4)CC3)cc2)cc1[N+](=O)[O-]", "note": "[ABT-737]", "values": [{"measurement": "effect against cancer cells in human patients", "setting": "[2]", "value": "effective against some types of cancer cells"}]}
{"smiles": "COc1ccc(C2=N[C@@H](c3ccc(Cl)cc3)[C@@H](c3ccc(Cl)cc3)N2C(=O)N2CCNC(=O)C2)c(OC(C)C)c1", "note": "[Nutlin-3A]", "values": [{"measurement": "expression of SASP factors and senescent cell markers MMP3, MMP13, PAI1, p21, IGFBP2, IL-1A, IL-1B", "setting": "[3]; after one treatment cycle (timepoint 1, week 4)", "value": "reduced expression"}, {"measurement": "expression of SASP factors and senescent cell markers in the aortic arch", "setting": "[3]; multiple treatment cycles (timepoint 2, week 8)", "value": "reduced expression of most markers"}, {"measurement": "destruction of the proteoglycan layer (histopathology)", "setting": "[4]", "value": "completely abrogated this effect"}, {"measurement": "reduction of surface area covered by plaques in the descending aorta", "setting": "[5]", "value": "about 45%"}, {"measurement": "SpO2 levels compared with untreated controls", "setting": "[1]", "value": "statistically significant increases"}, {"measurement": "weight bearing: favoring of the unoperated hind limb over the operated hind limb", "setting": "[6]", "value": "abrogated this effect"}, {"measurement": "lymphocyte counts versus vehicle treated mice", "setting": "[7]", "value": "equivalent"}, {"measurement": "platelet counts versus vehicle treated mice", "setting": "[7]", "value": "equivalent"}, {"measurement": "expression of p16 in the tissue", "setting": "[8]; q.o.d. for 2 weeks, FIG. 5A", "value": "reduced the expression back to below the level of the controls"}, {"measurement": "expression of IL-6 in the tissue", "setting": "[8]; q.o.d. for 2 weeks, FIG. 5B", "value": "reduced the expression back to below the level of the controls"}, {"measurement": "expression of MMP13 in the tissue", "setting": "[8]; q.o.d. for 2 weeks, FIG. 5C", "value": "reduced the expression back to below the level of the controls"}, {"measurement": "senescent cells in the joint", "setting": "[8]", "value": "cleared senescent cells from the joint"}]}
